Measured values reported in patent US12338203B2 (TAISHO PHARMACEUTICAL CO., LTD., priority 2019, dated 2025).

biological target: T1, human LPAR1 (Homo sapiens, UniProt Q92633); experiment: Test Example 1: antagonism against response of LPA-induced increase in intracellular Ca2+ concentration in RH7777 cells stably expressing human LPAR1; format: cell-based; details: RH7777 cells stably expressing human LPAR1; Fluo-4 fluorescence, FDSS6000; read-out: IC50 value (concentration producing 50% antagonism against response of LPA-induced increase in intracellular Ca2+ concentration) (converted)
T1 construct: expressed in transfected cells
How it was run: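 Ca2+ flux read at 540 nm emission (480 nm excitation) after LPA addition to human LPAR1-expressing RH7777 cells exposed to compound for 30 min, 37 °C, pH 7.4 HEPES-buffered HBSS. Response relative to no-compound control after basal subtraction; IC50 fitted from concentration–response.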

T1 sequence (Q92633 whole entry): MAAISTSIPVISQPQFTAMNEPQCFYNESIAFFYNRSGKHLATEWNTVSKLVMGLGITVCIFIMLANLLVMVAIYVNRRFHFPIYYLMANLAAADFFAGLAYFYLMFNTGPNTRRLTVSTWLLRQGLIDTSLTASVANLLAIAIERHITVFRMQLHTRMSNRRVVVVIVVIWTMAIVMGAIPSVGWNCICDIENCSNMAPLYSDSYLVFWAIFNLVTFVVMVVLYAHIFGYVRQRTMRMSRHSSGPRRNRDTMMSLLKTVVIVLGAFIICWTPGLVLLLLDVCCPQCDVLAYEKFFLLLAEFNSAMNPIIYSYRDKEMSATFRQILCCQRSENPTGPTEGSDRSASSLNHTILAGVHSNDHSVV

| Compound | IC50 |
| --- | --- |
| CCOc1cc([C@@H](C)N(CCO[C@@H](C)c2ccccc2)C(=O)N[C@]2(C(=O)O)C[C@@H](OCC)C2)cc(OCC)c1C(C)O (stereo partly drawn) [Example 4-136] | 3.43 nM |
| CCOc1cc(C(CO)N(CCCCc2ccccc2)C(=O)NC2(C(=O)O)Cc3ccccc3C2)cc(OCC)c1C (stereo not drawn) [Example 3-8] | 33.5 nM |
| CCOc1cc([C@@H](C)N(CCO[C@@H](C)c2cccc(Cl)c2)C(=O)NC2(C(=O)O)CCC2)c(Cl)c(OCC)c1C(C)=O [Example 4-176] | 15.3 nM |
| COc1cc(C(C)N(CCOCc2ccccc2)C(=O)NC2(C(=O)O)CCC2)cc(OC)c1C1CC1 (stereo not drawn) [Example 5-131] | 10.8 nM |
| CCOc1cc(C(C)N(CCCCc2ccccc2)C(=O)NC(Cc2ccccc2)C(=O)O)cc(OCC)c1C (stereo not drawn) [Example 1-8] | 125 nM |
| CCOc1cc([C@@H](C)N(CCCCc2ccccc2)C(=O)NC(C)(C)C(=O)O)cc(OCC)c1C [Example 1-13] | 20.4 nM |
| CCOc1cc([C@@H](C)N(CCCCc2cccc(OC)c2)C(=O)NC2(C(=O)O)CC(F)(F)C2)cc(OCC)c1C [Example 4-18, 1-({[(1R)-1-(3,5-Diethoxy-4-Methylphenyl)Ethyl][4-(3-Methoxyphenyl)Butyl]Carbamoyl}Amino)-3,3-Difluorocyclobutane-1-Carboxylic Acid] | 18.1 nM |
| CCOC1CC(NC(=O)N(CCOCc2ccccc2)[C@H](C)c2cc(OC)c(C)c(OC)c2)(C(=O)O)C1 (stereo partly drawn) [Example 4-165] | 4.85 nM |
| CCOc1c(C(C)O)ccc([C@@H](C)N(CCCCc2ccccc2)C(=O)NC2(C(=O)O)CC(F)(F)C2)c1C (single isomer, unassigned) [Example 1-78] | 5.87 nM |
| COc1cc(C(C)N(CCOCc2ccccc2)C(=O)NC2(C(=O)O)CC(F)(F)C2)cc(OC)c1C(C)=O (stereo not drawn) [Example 5-141] | 3.49 nM |
| CCOc1cc(OCC)nc(C(C)N(CCCCc2ccccc2)C(=O)NC2(C(=O)O)CC(F)(F)C2)c1 (stereo not drawn) [Example 5-85, 1-({[1-(4,6-Diethoxypyridin-2-Yl)Ethyl](4-Phenylbutyl) Carbamoyl}Amino)-3,3-Difluorocyclobutane-1-Carboxylic Acid] | 5.12 nM |
| CCOc1cc(C(=O)NC)cc(C(C)N(CCCCc2ccccc2)C(=O)NC2(C(=O)O)CC(F)(F)C2)c1 (stereo not drawn) [Example 5-25] | 43.2 nM |
| CCOc1cc([C@@H](C)N(CCCC(F)(F)c2ccccc2)C(=O)N[C@]2(C(=O)O)C[C@@H](OCC)C2)cc(OCC)c1C(C)=O [Example 4-69] | 4.9 nM |
| CC(c1cc(Cl)cc(Cl)c1)N(CCCCc1ccccc1)C(=O)NC1(C(=O)O)CC(F)(F)C1 (stereo not drawn) [Example 5-21] | 17.1 nM |
| CCOc1cccc(C(C)N(CCCCc2ccccc2)C(=O)NC2(C(=O)O)CC(F)(F)C2)c1 (stereo not drawn) [Example 5-3] | 45.5 nM |
| CCOc1cc([C@@H](C)N(CCO[C@@H](C)c2ccccc2)C(=O)N[C@]2(C(=O)O)C[C@@H](OCC)C2)c(C)c(OCC)c1C(C)=O [Example 5-118, Trans-1-[([(1R)-1-(4-Acetyl-3,5-Diethoxy-2-Methylphenyl)Ethyl]{2-[(1S)-1-Phenylethoxy]Ethyl}Carbamoyl)Amino]-3-Ethoxycyclobutane-1-Carboxylic Acid] | 1.86 nM |
| CCNc1cc(C(C)N(CCCCc2ccccc2)C(=O)NC2(C(=O)O)CCC2)cc(OCC)c1C(C)=O (stereo not drawn) [Example 5-103] | 1.71 nM |
| CCOc1cc(C(C)N(CCO[C@@H](C)c2ccccc2)C(=O)NC2(C(=O)OC(C)(C)C)CC2)c(Cl)c(OCC)c1C(C)=O (stereo partly drawn) [Example 6-13] | 3040 nM |
| CCOc1cc(C(C)N(CCOCc2ccccc2)C(=O)NC2(C(=O)O)CCC2)c(C)c(OCC)c1C(C)=O (stereo not drawn) [Example 5-191] | 1.45 nM |
| CCOc1cc([C@@H](C)N(CCO[C@@H](C)c2ccccc2)C(=O)NC2(C(=O)O)CC(OC)C2)cc(OCC)c1C(C)O (stereo partly drawn) [Example 4-123] | 7.82 nM |
| CCOc1cc([C@@H](C)N(CCO[C@H](C)c2ccccc2)C(=O)NC2(C(=O)O)CCOCC2)c(Cl)c(OCC)c1C(C)=O [Example 5-34] | 4.18 nM |
| CCOc1cc([C@@H](C)N(CCC2Cc3ccccc3C2)C(=O)NC2(C(=O)O)CC(OC)C2)cc(OCC)c1C(C)=O (stereo partly drawn) [Example 4-23] | 7.17 nM |
| CCOc1cc(C(C)N(CCOC(C)c2ccccc2)C(=O)NC2(C(=O)O)CCC2)c(Cl)c(OCC)c1C(C)=O (stereo not drawn) [Example 5-195] | 2.07 nM |
| CCOc1cc(C(C)N(CCCCc2ccccc2)C(=O)NC2(C(=O)O)CCCC2)cc(OCC)c1C (stereo not drawn) [Example 1-112] | 18.7 nM |
| CCOc1cc(C(C)N(CCCCc2ccccc2)C(=O)NC2(C(=O)O)CC(F)(F)C2)cc(O)c1C(C)=O (stereo not drawn) [Example 1-62, 1-({[1-(4-Acetyl-3-Ethoxy-5-Hydroxyphenyl)Ethyl](4-Phenylbutyl) Carbamoyl}Amino)-3,3-Difluorocyclobutane-1-Carboxylic Acid] | 6.76 nM |
| CCOc1cc(C(C)N(CCCCc2ccccc2)C(=O)NC2(C(=O)O)CC2)c(Cl)c(OCC)c1C(C)=O (stereo not drawn) [Example 5-44] | 3.38 nM |
| CCOc1cc(C(C)N(CCCCc2ccccc2)C(=O)NC(CCc2ccccc2)C(=O)O)cc(OCC)c1C (stereo not drawn) [Example 1-9] | 129 nM |

| Compound | IC50 |
| --- | --- |
| CCOc1cc([C@@H](C)N(CCCCc2ccccc2)C(=O)NC2(C(=O)O)CCCCCC2)cc(OCC)c1C [Example 1-119] | 53.6 nM |
| CCOc1cc(C(CO)N(CCCCc2ccccc2)C(=O)NC2(C(=O)O)CC(F)(F)C2)cc(OCC)c1C (stereo not drawn) [Example 3-5] | 4.88 nM |
| CCOc1c(C(C)=O)ccc([C@@H](C)N(CCO[C@H](C)c2ccccc2)C(=O)NC2(C(=O)O)CC(F)(F)C2)c1C [Example 4-151] | 2.62 nM |
| CCOc1cc(C(C)N(CCCCc2ccccc2)C(=O)NC2(C(=O)O)CC(F)(F)C2)c(Cl)c(OCC)c1C (stereo not drawn) [Example 5-84] | 3.36 nM |
| CCOc1cc([C@@H](C)N(CCCCc2ccccc2)C(=O)NC2(C(=O)O)CCS(=O)(=O)CC2)cc(OCC)c1C [Example 1-157] | 3.24 nM |
| COc1cc(C(C)N(CCO[C@@H](C)c2ccccc2)C(=O)NC2(C(=O)O)CCOCC2)c(C)c(OC)c1C1CC1 (stereo partly drawn) [Example 5-181] | 3.51 nM |
| CCOc1cc([C@@H](C)N(CCCC(F)(F)c2ccccc2)C(=O)NC2(C(=O)O)CC(OC)C2)cc(OCC)c1C(C)O (single isomer, unassigned) [Example 4-62] | 5.15 nM |
| CCOc1cc([C@@H](C)N(CCCCc2ccccc2C)C(=O)NC2(C(=O)O)CC(F)(F)C2)cc(OCC)c1C [Example 4-15] | 32.7 nM |
| CCOc1cc([C@@H](C)N(CCC(F)(F)Cc2ccccc2)C(=O)NC2(C(=O)O)CC2)cc(OCC)c1C(C)=O [Example 4-79] | 34.6 nM |
| CCOc1cc(C(C)N(CCOCc2ccccc2)C(=O)NC2(C(=O)O)CC(OC)C2)cc(OCC)c1C1CC1 (stereo not drawn) [Example 5-199] | 0.761 nM |
| COc1cc(C(C)N(CCCCc2ccccc2)C(=O)NC2(C(=O)O)CCCC2)cc(OC)c1C (stereo not drawn) [Example 1-116] | 57.4 nM |
| CCOc1cc([C@@H](C)N(CCCC(F)(F)c2ccccc2)C(=O)NC2(C(=O)O)CCC2)cc(OCC)c1C(C)=O [Example 4-50] | 1.21 nM |
| CCOc1cc([C@@H](C)N(CCCCc2ccccc2)C(=O)NC(C)(C)C(=O)O)cc(OCC)c1C(C)=O [Example 1-1, N-{[(1R)-1-(4-Acetyl-3,5-Diethoxyphenyl)Ethyl](4-Phenylbutyl) Carbamoyl}-2-Methylalanine] | 3.17 nM |
| CCOc1cc(C(C)N(CCCCc2ccccc2)C(=O)NC2CCC[C@H]2C(=O)O)cc(OCC)c1C (stereo partly drawn) [Example 1-136] | 18.2 nM |
| CCOc1cc(C(C)N(CCCCc2ccccc2)C(=O)NC2(C(N)=O)CCCC2)cc(OCC)c1C (stereo not drawn) [Example 6-1, 1-({[1-(3,5-Diethoxy-4-Methylphenyl)Ethyl](4-Phenylbutyl) Carbamoyl}Amino)Cyclopentane-1-Carboxamide] | 1890 nM |
| COc1cc(C(C)N(CCOCc2ccccc2)C(=O)NC2(C(=O)O)CC(OC)C2)c(C)c(OC)c1C1CC1 (stereo not drawn) [Example 5-155] | 1.1 nM |
| CCOc1cc(C(C)N(CCCCc2ccccc2)C(=O)NC2(C(=O)O)CC(F)(F)C2)cc(OC)c1C (stereo not drawn) [Example 1-68] | 3.78 nM |
| CCOc1cc([C@@H](C)N(CCCCc2ccccc2)C(=O)NCC2(C(=O)O)CCOCC2)cc(OCC)c1C(C)=O [Example 1-165] | 64.8 nM |
| CCOc1cc([C@@H](C)N(CCOCc2ccccc2)C(=O)NC2(C(=O)O)CC(OCC)C2)cc(OCC)c1C(C)=O (stereo partly drawn) [Example 4-109] | 1.59 nM |
| CCCc1cc(OCC)cc(C(C)N(CCCCc2ccccc2)C(=O)NC2(C(=O)O)CC(F)(F)C2)c1 (stereo not drawn) [Example 5-15] | 6.1 nM |
| CCOc1cc([C@@H](C)N(CCOCc2ccccc2)C(=O)N[C@]2(C(=O)O)C[C@@H](OCC)C2)c(C)c(OCC)c1C [Example 5-81] | 1.07 nM |
| CCOc1cc([C@@H](C)N(CCO[C@@H](C)c2ccccc2)C(=O)NC2(C(=O)O)CCOCC2)c(Cl)c(OCC)c1C(C)=O [Example 5-33] | 2.77 nM |
| COc1cc(C(C)N(CCOCc2ccccc2)C(=O)NC2(C(=O)O)CC(F)(F)C2)cc(OC)c1C1CC1 (stereo not drawn) [Example 5-142] | 1.74 nM |
| CCOc1cc([C@@H](C)N(CCO[C@@H](C)c2cccc(Cl)c2)C(=O)NC2(C(=O)O)CC(F)(F)C2)c(Cl)c(OCC)c1C(C)=O [Example 4-177] | 4.02 nM |
| CCOc1cc([C@@H](C)N(CCO[C@@H](C)c2ccccc2)C(=O)NC2(C(=O)O)CC2)c(Cl)c(OCC)c1C(C)=O [Example 5-31, 1-[([(1R)-1-(4-acetyl-2-chloro-3,5-diethoxyphenyl)ethyl]{2-[(1S)-1-phenylethoxy]ethyl}carbamoyl)amino]cyclopropane-1-carboxylic acid] | 2.59 nM |
| CCOc1cc([C@@H](C)N(CCO[C@@H](C)c2ccccc2)C(=O)NC2(c3nn[nH]n3)CC2)cc(OCC)c1C(C)=O [Example 10-1, N-[(1R)-1-(4-Acetyl-3,5-Diethoxyphenyl)Ethyl]-N-{2-[(1S)-1-Phenylethoxy]Ethyl}-N′-[1-(2H-Tetrazol-5-Yl)Cyclopropyl]Urea] | 3.22 nM |
| CCOc1cc(C(C)N(CCO[C@@H](C)c2ccccc2)C(=O)NC2(C(=O)OC(C)(C)C)CC(F)(F)C2)c(Cl)c(OCC)c1C(C)=O (stereo partly drawn) [Example 6-17] | 10200 nM |
